Literature values in US20140128375A1, “B[…] AS CGRP RECEPTOR ANTAGONISTS” (priority 2006, published 2014).

System: CGRP
Conditions: marmoset, electrical stimulation of the trigeminal ganglion

NCCCC[C@H](NC(=O)[C@@H](Cc1cc(Br)c(O)c(Br)c1)NC(=O)N1CCC(N2Cc3ccccc3NC2=O)CC1)C(=O)N1CCN(c2ccncc2)CC1 [BIBN4096BS]
effect on increase in facial blood flow: could be blocked
